Tests used:
[1] = tested on: mouse monocyte-macrophage cells; details: cited from earlier work
[2] = tested on: S. mutans biofilms; experiment: Live/Dead staining of S. mutans biofilms; format: cell-based, Streptococcus mutans; details: aPDT, no magnetic field
Protocol: After each treatment, the biofilms were washed by placing 200 μL of 0.9% saline inside the well, and then, the 0.9% saline was gently aspirated. Next, another 200 μL of saline was placed inside the well, and the biofilm was gently scraped to remove the biofilm cells (23). Then, the biofilm cells were resuspended with the saline to perform serial dilutions (1:10, 1:100, 1:1000, 1:10 000, and 1:100 000) using BHI agar. The BHI agar plates were incubated for 48 h at 37° C. in a 5% CO2 incubator and then counted using a colony counter. Considering the dilution factor, the CFUs/mL were calculated and estimated to measure the number of colonies per milliliter. Two wells were randomly selected for Live/Dead staining of the biofilms to be washed with 0.9% saline and then stained with the BacLight live/dead kit (Molecular Probes, Eugene, Oreg.).

[3] = Density of microemulsion; format: physicochemical
[4] = Absorbance change over time (UV-visible spectrometry); format: physicochemical
Protocol: (§1) Three microemulsions were selected for further investigations (1, 2.5, and 5 wt. %). Microemulsions were tested for thermodynamic stability via centrifugation stress at 5,000 rpm for 2 h at 4° C., and freeze-thaw stress consisting of three complete cycles. Each cycle consisted of placing the microemulsion for 24 h at −20° C. followed by another 24 h at 4° C. […] For long-term stability, microemulsions were kept in the dark at room temperature and then examined at 1, 3, and 6 months for physical changes or phase separation (21,22). The pH of the synthesized microemulsions was tested using a digital pH meter (accuracy±5%; Accumet XL25, Thermo Fisher Scientific, Waltham, Mass., USA). Before the pH measurement, the pH meter was calibrated using commercial standard buffer solutions of pH 4, pH 7, and pH 10 at room temperature. For the absorbance evaluation, the upper third of the synthesized microemulsions was investigated over time using ultraviolet-visible optical absorption spectrometry (SpectraMax M5, Molecular Devices, Sunnyvale, Calif., USA). […] The density of each microemulsion was calculated following the equation: […]

[5] = pH measurement; format: physicochemical; details: room temperature
Protocol: as §1

[6] = tested on: Human gingival fibroblasts
Protocol: Human gingival fibroblasts (HGF, ScienCell, San Diego, Calif., USA) were cultured using fibroblast medium (FM) supplemented with 2% fetal bovine serum, 1% fibroblast growth supplement, 100 IU/mL penicillin, and 100 IU/mL streptomycin (18 76). When the viability of the cells was above 90%, the cells were seeded in the wells of a 96-well plate (5,000 cells per well) and incubated for 24 h. In the following day, the medium was removed, and different concentrations of superparamagnetic iron(II) oxide nanoparticles (0.25, 0.5, 1, 1.5, 2, 2.5, and 5 wt. %) nanoparticles with and without 100 μg/mL of TBO photosensitizer were dissolved in the fibroblast medium and incubated in contact with the cells for 24 h. The synthesized microemulsions containing the different concentrations of superparamagnetic iron(II) oxide nanoparticles (0.25, 0.5, 1, 1.5, 2, 2.5, and 5 wt. %) were also tested. All the microemulsions were diluted with the fibroblast medium at a 1:1 ratio. After 24 h of incubation at 37° C. with 5% CO2, the cells were washed with phosphate-buffered saline (PBS), and cell counting Kit-8 (CCK-8, Dojindo, Rockville, Md., USA) was used to evaluate the cell viability. The absorbance was read at 450 nm using a spectrophotometer (SpectraMax M5, Molecular Devices, Sunnyvale, Calif., USA). For the live/dead assay, the fibroblast cells were seeded in the wells of a 24-well plate (40,000 cells per well). The medium was changed daily to allow the viability to be above 90%. Microemulsions containing 5 and 2.5% were added to a fresh culture medium at the ratio of 1:1 and incubated with the cells for one day. Wells treated with TBO alone or with no treatment were used as controls. After one day of incubation, the old medium was removed, cells were washed with PBS, and LIVE/DEAD™ Cell Imaging Kit (Invitrogen, Frederick, Md., USA) was used to stain the cells. The cells were visualized using an inverted epifluorescence microscope (Eclipse TE2000-S, Nikon, Melville, N.Y., USA).

[7] = tested on: saliva-derived multispecies biofilms; experiment: Photodynamic treatment against saliva-derived biofilms (CFU); format: cell-based; details: 7-day biofilm on dentin slabs, aPDT, no magnetic field, vs control
Protocol: Photodynamic Treatment with MagTBO Against Saliva-Derived Biofilms
Saliva samples were collected from ten healthy individuals with no active carious lesions or history of antibiotics in the last three months. The participants were instructed not to brush their teeth 24 h and not eat or drink two h before the collection. The collected saliva samples were mixed to create a homogenous and complex bacterial composition. The use of saliva as inoculum was approved by the University of Maryland Baltimore Institutional Review Board (HP-00050407). The collected saliva was mixed with glycerol (70:30) and stored at −80° C. This model was used in previous studies to form thick and mature multispecies biofilm (24-26).
Dentin slabs (6×6×1 mm) were used as substrates to grow the biofilm (FIG. 8A). The slabs were prepared from radicular dentin of extracted teeth using a diamond saw with water as coolant (Isomet, Buehler, Lake Bluff, Ill., USA). The collection and the use of extracted teeth were approved by the University of Maryland Baltimore Institutional Review Board. […] The microhardness of the slabs was measured via Vicker's indentation (HMV II, Shimadzu Corporation, Kyoto, Japan) by calculating the average of five different indentations (25 g load for 10 s) per slab (27). […]

[8] = tested on: S. mutans UA159 biofilms; experiment: Photodynamic treatment against Streptococcus mutans biofilms (CFU); format: cell-based; details: for antibacterial effect of core components on S. mutans biofilm: components alone, diluted to their concentration in the microemulsion (FIG. 5A)
Protocol: Photodynamic Treatment Via MagTBO Against Streptococcus mutans Biofilms S. mutans UA159 obtained from the American Type Culture Collection (ATCC, Manassas, Va., USA) were grown overnight using brain heart infusion (BHI) broth (Sigma-Aldrich, St. Louis, Mo., USA) at 37° C. and 5% CO2 incubator. The optical density of the S. mutans was modified to 1×10^8 colony-forming units (CFU)/mL (OD600=0.9) and diluted 1:20 with BHI broth supplemented with 2% of sucrose (12). 200 μL of the diluted overnight culture was placed inside the wells of a black 96-well plate for 24 h. The media was changed after 24 h and 48 h of biofilm growth was continued. The biofilm was washed with 0.9% saline and irradiated with 100 μg/mL of TBO and MagTBO microemulsions containing 1, 2.5, and 5% of SPIONs with and without magnetic field (neodymium magnet, 0.4 Tesla; pull force=601b5). The TBO or the microemulsions were left for 1 min and then irradiated for 5 minutes to deliver an energy density of 180 J/cm^2 and light intensity of 180 mW. The magnetic field was applied at a 10 mm distance below the biofilm during the entire period of the incubation and irradiation times (FIG. 1C). Untreated wells and wells treated with glycerol, essential oil, and polysorbate 20 were used as controls. After each treatment, the biofilms were washed by placing 200 μL of 0.9% saline inside the well, and then, the 0.9% saline was gently aspirated. Next, another 200 μL of saline was placed inside the well, and the biofilm was gently scraped to remove the biofilm cells (23). Then, the biofilm cells were resuspended with the saline to perform serial dilutions (1:10, 1:100, 1:1000, 1:10 000, and 1:100 000) using BHI agar. The BHI agar plates were incubated for 48 h at 37° C. in a 5% CO2 incubator and then counted using a colony counter. Considering the dilution factor, the CFUs/mL were calculated and estimated to measure the number of colonies per milliliter. Two wells were randomly selected for Live/Dead staining of the biofilms to be washed with 0.9% saline and then stained with the BacLight live/dead kit (Molecular Probes, Eugene, Oreg.).

[9] = tested on: Human gingival fibroblasts; experiment: Live/dead assay of fibroblast cells; format: cell-based; details: one day incubation; microemulsions 1:1 with medium
Protocol: Human gingival fibroblasts (HGF, ScienCell, San Diego, Calif., USA) were cultured using fibroblast medium (FM) supplemented with 2% fetal bovine serum, 1% fibroblast growth supplement, 100 IU/mL penicillin, and 100 IU/mL streptomycin (18 76). When the viability of the cells was above 90%, the cells were seeded in the wells of a 96-well plate (5,000 cells per well) and incubated for 24 h. In the following day, the medium was removed, and different concentrations of superparamagnetic iron(II) oxide nanoparticles (0.25, 0.5, 1, 1.5, 2, 2.5, and 5 wt. %) nanoparticles with and without 100 μg/mL of TBO photosensitizer were dissolved in the fibroblast medium and incubated in contact with the cells for 24 h. The synthesized microemulsions containing the different concentrations of superparamagnetic iron(II) oxide nanoparticles (0.25, 0.5, 1, 1.5, 2, 2.5, and 5 wt. %) were also tested. All the microemulsions were diluted with the fibroblast medium at a 1:1 ratio. After 24 h of incubation at 37° C. with 5% CO2, the cells were washed with phosphate-buffered saline (PBS), and cell counting Kit-8 (CCK-8, Dojindo, Rockville, Md., USA) was used to evaluate the cell viability. The absorbance was read at 450 nm using a spectrophotometer (SpectraMax M5, Molecular Devices, Sunnyvale, Calif., USA). […]

Row | Compound | toxicity against macrophage cells ([1]; 100 μg/mL TBO, previous report (12)) | cytotoxicity against macrophage cell line ([1]; concentrations higher than 100 μg/mL, reported (12)) | viable microorganisms in live/dead images [2] | Density [3] [g/mL] | Absorbance change (%) ([4]; 1-Month) | Absorbance change (%) ([4]; 3-Month) | Absorbance change (%) ([4]; 6-Month) | pH Measurement [5] | percentage of fibroblast viability ([6]; TBO alone, 100 μg/mL, 24 h) [%] | cytotoxicity against fibroblasts (in words) ([6]; compared to the control) | reduction of multispecies biofilm CFU (total microorganisms, total streptococci, mutans streptococci, total lactobacilli) [7] | reduction against the S. mutans biofilm (CFU) ([8]; aPDT with light activation 180 J/cm2, no magnetic field, vs control (FIG. 5C)) [log] | antibacterial effect on S. mutans biofilm ([8]; incubated for 5 min without light activation (FIG. 5B)) | viable cells in live/dead images [9] | antibacterial effect of core components on S. mutans biofilm [8] | cytotoxicity of the microemulsion components (in words) ([6]; added to fibroblast media in a ratio similar to their proportion in the microemulsion)
1 | Cc1cc2nc3ccc(N(C)C)cc3[s+]c2cc1N.[Cl-] [TBO, toluidine blue O] | did not induce significant toxicity | critical cytotoxicity | significant reduction in the viable microorganisms | 1 | No change | No change | No change | 3.19 ± 0.05 | 33.4 | significant toxicity | around 1 log | 3 | No antibacterial effect | significantly reduced viability | – | –
2 | OCC(O)CO [glycerol] | – | – | – | – | – | – | – | – | – | – | – | – | – | – | None of the components were associated with any antibacterial effect | –
3 | polysorbate 20 | – | – | – | – | – | – | – | – | – | – | – | – | – | – | None of the components were associated with any antibacterial effect | significant cytotoxicity

From patent US20230130513A1, “Magnetic-Responsive Photosensitizer Nanoplatform and Uses Thereof” (University of Maryland, Baltimore, priority 2021, published 2023)
